The text below walks through data of patent US4794123A, “Thiazolo- and thiazino- benzimidazoles and their use as anti-ulcer agents” (John Wyeth & Brother Limited, priority 1983, dated 1988).

This test relates to rabbit isolated gastric glands. The test is described as follows: aminopyrine accumulation in rabbit isolated gastric glands (anti-secretory activity, H+/K+ ATPase inhibitors). As to conditions: 10^-4 M, % inhibition of the maximum response to the secretagogue; for inhibition at 100 µM: Oryctolagus cuniculus. The test is classed as cell-based. On the procedure: Compounds of formula I were tested for anti-secretory activity by their ability to inhibit the highly specific proton transporting enzyme H^+ /K^+ ATPase.
Potential H^+ /K^+ ATPase inhibitors were evaluated by a technique involving the measurements of aminopyrine accumulation in rabbit isolated gastric glands. Aminopyrine accumulates in acid-secreting cells; therefore, uptake of aminopyrine is increased by secretagogues and an inhibitor of acid secretion will reduce the response to one or more secretagogues depending upon its site of action. […] The following test procedure is used:
Rabbit gastric glands are isolated from gastric mucosa from the corpus region of the stomach by a method based on one described by Berglindh T., Obrink, K. J., Acta Physiol. Scand.
Results are expressed as the % inhibition of the maximum response to the secretagogue induced by the test compound. An inhibitor of H^+ /K^+ ATPase would be expected to reduce the response to both secretagogues.

Setting [1] is: 14C-aminopyrine uptake stimulated by DBcAMP, read-out: % Inhibition to stimulation by DBcAMP.
Where [2] appears, read: 14C-aminopyrine uptake stimulated by high K+, read-out: % Inhibition to stimulation by K+.

Where two headings read alike, the source gives them in different places.

In the case of “6-Ethoxy-2-(2-pyridyl)thiazolo[3,2-a]-benzimidazole and 7-ethoxy-2-(2-pyridyl)thiazolo[3,2-a]benzimidazole”, the “% Inhibition to stimulation by DBcAMP” value (14C-aminopyrine uptake stimulated by DBcAMP) is recorded as 68%. Moreover, the “% Inhibition to stimulation by K+” value (14C-aminopyrine uptake stimulated by high K+) is listed as 162%.
Turning to `CCc1ccc(-c2cn3c(nc4ccccc43)s2)nc1` [2-(2-(5-Ethylpyridyl))thiazolo[3,2-a]-benzaimidazole], the inhibition (commonly the drop in the measured response relative to a control, in per cent) at 100 µM amounted to 56% under setting [1] and 142% under setting [2].
As for `c1ccc(-c2cccc(-c3cn4c(nc5ccccc54)s3)n2)cc1` [2-[2-(6-Phenylpyridyl)]thiazolo[3,2-a]benzimidazole], the inhibition at 100 µM by setting is: under setting [1], 22%; under setting [2], 381%.
